# Measured values: US6387278B1, “Increasing subterranean mobilization of organic contaminants and petroleum by aqueous thermal oxidation” (The Regents of the University of California, priority 2000, dated 2002)
# How the values were obtained:
# [1] = solubility of TCE in water as a function of temperature (Dickson-type autoclave); assay type: physicochemical; conditions: at 298 K; calculated from solubility measured from 298 to 398 K at constant pressure
# Source text: (§1) The static autoclave experiments are run in Dickson-type, gold-bag rocking autoclaves. The autoclave reaction vessel uses a flexible gold bag sealed with a passivated titanium head and is contained within a large steel pressure vessel. The autoclave design allows periodic sampling of the reaction cell under in situ conditions throughout the course of an experiment without disturbing the temperature and pressure of the run. During the experiment the solution contacts only gold and passivated titanium so that unwanted surface catalytic effects are eliminated. Various combinations of solid, liquid or gaseous catalysts or oxidants are introduced into the reactor in order to study their effects on reaction mechanisms and rates. The sampled fluids and gases are analyzed using a variety of analytical techniques including ICP-ES, IC, GC (using purge and trap), gas MS, GC/MS, and HPLC.
# A Dickson-type autoclave, as described above, equipped with a precision high pressure liquid chromatography pump to control pressure was used to measure the solubility of TCE in water as a function of temperature from 298 to 398 K at constant pressure. Obtained results were used to calculate the partial molal thermodynamic quantities for the dissolution reaction of TCE in water at 298 K: ΔGsoln=11.1 (±0.71) KJ/mol, ΔHsoln=3.075 (±0.525) KJ/mol and ΔSsoln=−28.29 (±1.61) J/mol-K.
# [2] = hydrous pyrolysis/oxidation of TCE dissolved in water with dissolved oxygen; assay type: physicochemical; conditions: temperatures above 90° C.
# Source text: as §1
# All experiments are conducted in non-reactive flexible gold bag hydrothermal systems, so that complications due to experimental artifacts from catalysis by the equipment itself are avoided, and both temperature and pressure can be precisely controlled. Many samples can be taken and tested as the reaction proceeds without affecting the conditions of the reaction itself. […]
structure (smiles),measurement,setting,value
"ClC=C(Cl)Cl [TCE, trichloroethylene]","ΔGsoln, partial molal quantity for the dissolution reaction in water",[1],11.1 (±0.71) KJ/mol
same,"ΔHsoln, partial molal quantity for the dissolution reaction in water",[1],3.075 (±0.525) KJ/mol
same,"ΔSsoln, partial molal quantity for the dissolution reaction in water",[1],−28.29 (±1.61) J/mol-K
same,decrease of concentration by hydrous pyrolysis/oxidation,[2]; initial runs with high starting concentrations (up to ≧600 ppm),"≤ 10,000 fold"
same,concentration eventually reached (drinking water MCL),[2]; initial runs with high starting concentrations,5 ppb
